Tests used:
Type in all cases: in vivo
Male ICR mice [1] = test: Novel object recognition test (NORT)
Experimental: The novel location recognition test (NLRT) and novel object recognition test (NORT) were examined in a Plexiglas open field box (35×35×30 cm) located in a sound-attenuated room and illuminated with a 20-W light bulb. The novel location and novel object recognition procedure consisted of habituation, training, and retention sessions. Habituation was conducted in two consecutive daily sessions, during which each mouse was allowed to individually explore the box in the absence of objects for 20 min. The animal is then removed from the arena and placed in its home cage. During the sample phase, each animal was placed in the box, and after 5 min, two identical sample objects (A+A) were simultaneously introduced in two corners. Each animal was allowed to explore the objects for 5 min. An animal was considered to explore the object when its head was facing the object at a distance of approximately 1 cm or less between the head and object or when it was touching or sniffing the object. The time spent exploring each object was recorded using stopwatches by an experimenter blind to the treatment condition.
After the sample phase, the mice were immediately returned to their home cages. The novel location recognition test was conducted 30 min after the training session. The animals were returned to the same box as during the sample phase, and one of the two objects was replaced with a novel local corner (A+A′) to test the location-based recognition memory. After 24 hours, novel object recognition test was performed. The mice are allowed to explore the open field with one identical sample object and a novel object to assess the novel object recognition memory (A+B). The animals were allowed to explore the box freely for 5 min, and the time spent exploring each object was recorded as described above. The objects and chambers were cleaned with 70% ethanol after each use. A preference index, a ratio of the amount of time spent exploring the original object or the novel location/object over the total time spent exploring both objects, was used to evaluate recognition memory. […]

Male ICR mice [2] = test: Forced swimming test (FST) scored by time-sampling method; details: day 1 and 8, post hoc vs control
Experimental: (§1) FST was conducted for two consecutive days. Mice were placed in a Plexiglas cylinder (33.5 cm height, 20 cm diameter) filled with 25±2° C. water to a height of 18-20 cm. For the first exposure, mice were placed in the water for 15 min (pre-test session) followed by […]. Twenty-four hours later (day 1 test session), various doses of test drug (at 0, 30 and 100 mg/kg) was administered 30 min prior to the ketamine (10 mg/kg) or saline. Then, the mice were tested 30 min after ketamine injection which placed in the water again for a 6 min session (test session), the first 2 minutes has elapsed. Immobility was assigned when no additional activity was observed other than that required to keep the head above the water.
The acute and sustained effects of various doses of ketamine (3, 10, 15 mg/kg) and betaine (10, 20, 30 mg/kg) on FST were assessed on day 1 and 8, respectively (FIGS. 1A and 1B). […] There was no significant effect of test session or interaction.

Male ICR mice [3] = test: Prepulse inhibition test (PPI) of acoustic startle; details: for PPI: ketamine 30 mg/kg alone
Experimental: The PPI was operated as described in our previous work (Chan et al., 2012a). Briefly, the animals were initially moved from the home cage, weighed, and then placed into the restrainers in the SR-LAB (San Diego Instruments, San Diego, Calif., USA) acoustic startle chambers for 30-min habituation. The test drug (0, 30 and 100 mg/kg) was administered 30 min prior to ketamine (30 mg/kg) or saline injection. After administration of ketamine or saline, the experiment started with a 5-min adaptation period during which the animals were exposed to 67-dB background white noise, and this background noise was continued throughout the session. Then, the following adaptation period startle session began with five initial startle stimuli (120 dB bursts of white noise, 40 ms duration). After the first five initial stimuli, mice received five different trial types: pulse alone trials (120 dB bursts of white noise, 40 ms duration), three prepulse and pulse trials in which 76, 81, or 86 dB white noise bursts (9, 14, and 19 dB above background) of 20 ms duration preceded 120 dB pulse by 100 ms prepulse onset to pulse onset, and no-stimuli trials during which only background noise was applied. Each of these trial types was presented five times in randomized order. The inter trial interval was 7-23 s, and the test lasted 15 min in total. Prepulse inhibition was calculated as the percent inhibition of the startle amplitude evoked by the pulse alone: % PPI=(magnitude on pulse alone trial−magnitude on prepulse+pulse trial/magnitude on pulse alone trial)×100.

Male ICR mice [4] = test: Emergence test
Experimental: The emergence test was examined in a test box (35×35×30 cm) contained an aluminum cylinder (10 cm deep×6.5 cm diameter) located lengthwise along one wall, with the open end 10 cm from the corner. The test drug (0, 30 and 100 mg/kg) or ketamine (10 mg/kg) was administered 30 min prior to the test. Mice were placed into the cylinder and tested for 10 min and scored three behavioral parameters: the latency to leave the cylinder, the number of entries into the cylinder and the total time spent inside the cylinder.

Male ICR mice [5] = test: Rotarod test (motor coordination)
Experimental: Motor coordination was examined using an automated rotarod device (Singa; Technology Co., Ltd, Taiwan) for a maximum of 6 mice. A computer recorded the latency to fall in seconds. During two-three days training period, the mice were first trained on the rotarod at a constant speed of 20 rotations per minute (rpm) until all of the mice were able to spend at least 3 min on the road. The test drug (0, 30 and 100 mg/kg) was administered 30 min prior to the ketamine (30 mg/kg) or saline injection. Then, the mice were tested 10, 15, 20, 25, and 30 min after ketamine injection.

Male ICR mice [6] = test: Forced swim test (FST): duration of immobility, struggling and swimming
Experimental: as §1
This experiment included a control group and various doses of ketamine (3, 10, 15 mg/kg), betaine (10, 20, 30 mg/kg) and betaine (10, 20, 30 mg/kg) pretreatment prior to ketamine (fixed dose at 10 mg/kg). […] There was no significant effect of test session or interaction.

[7] = ketamine 15 mg/kg, day 7 retest session, vs control
[8] = betaine 30 mg/kg pretreatment prior to ketamine 10 mg/kg, day 1 test session

CNC1(c2ccccc2Cl)CCCCC1=O (racemic) [ketamine]
recognition index (Male ICR mice [1]; ketamine 30 mg/kg, retention session (24 h)): significantly reduced | count of immobility in FST (Male ICR mice [2]; ketamine 3, 10 and 15 mg/kg): significantly decreased | PPI (Male ICR mice [3]): reduced | PPI (Male ICR mice [3]; listed as Ketamine): significantly reduced | total time spent inside the cylinder (Male ICR mice [4]; ketamine 10 mg/kg, post hoc): significantly reduced | latency to stay on the rotarod (Male ICR mice [5]; ketamine 30 mg/kg, 10-30 min after administration): significantly decreased | duration of immobility in FST (Male ICR mice [6]; ketamine 10 mg/kg, DMG experiment, tested 30 min after ketamine): significantly decreased | duration of struggling in FST (Male ICR mice [6]; ketamine 15 mg/kg, day 1 test session, vs control): significantly increased | duration of struggling in FST (Male ICR mice [6]; [7]): significantly increased | duration of swimming in FST (Male ICR mice [6]; [7]): significantly increased | duration of immobility in FST (Male ICR mice [6]; ketamine 15 mg/kg, day 7 retest session, vs vehicle control): significantly decreased | duration of struggling in FST (Male ICR mice [6]; ketamine 15 mg/kg, over both sessions): significantly increased | duration of immobility in FST (Male ICR mice [6]; ketamine 3, 10 and 15 mg/kg, day 1 test session, vs vehicle control): significantly reduced | duration of swimming in FST (Male ICR mice [6]; ketamine 10 and 15 mg/kg, day 1 test session, vs control): significantly increased | duration of immobility in FST (Male ICR mice [6]; ketamine 10 and 15 mg/kg, main effect over both sessions): significantly decreased | duration of swimming in FST (Male ICR mice [6]; ketamine 10 and 15 mg/kg, over both sessions): significantly increased

C[N+](C)(C)CC(=O)O [betaine]
recognition impairing effects of ketamine (Male ICR mice [1]; betaine 30 and 100 mg/kg 30 min prior to ketamine 30 mg/kg, retention session): significantly reversed | count of immobility in FST (Male ICR mice [2]; betaine 20 and 30 mg/kg): significantly decreased | ketamine-induced disruption of PPI (Male ICR mice [3]; betaine 100 mg/kg pretreatment, ketamine 30 mg/kg): significantly attenuated | reduction of PPI (Male ICR mice [3]; betaine prior to saline): did not | anxiolytic effect in the emergence test (Male ICR mice [4]; betaine 30 and 100 mg/kg): did not show anxiolytic effect | ketamine-induced motor in coordination (Male ICR mice [5]; betaine 30 and 100 mg/kg i.p. 30 min prior to ketamine 30 mg/kg): significantly reduced | duration of immobility in FST compared with ketamine (10 mg/kg) alone (Male ICR mice [6]; [8]): significantly shorter duration of immobility | duration of swimming in FST compared with ketamine (10 mg/kg) (Male ICR mice [6]; [8]): longer duration of swimming | duration of immobility in FST compared with ketamine (10 mg/kg) alone (Male ICR mice [6]; betaine 30 mg/kg pretreatment prior to ketamine 10 mg/kg, over both sessions): significantly shorter duration of immobility | duration of struggling in FST (Male ICR mice [6]; betaine 30 mg/kg, day 7 retest session, vs control): significantly increased | duration of immobility in FST (Male ICR mice [6]; betaine 10, 20 and 30 mg/kg pretreatment prior to ketamine 10 mg/kg, day 7 retest session, vs vehicle control): significantly decreased | duration of immobility in FST (Male ICR mice [6]; betaine 10, 20 and 30 mg/kg pretreatment prior to ketamine 10 mg/kg, main effect over both sessions): significantly decreased | duration of immobility in FST (Male ICR mice [6]; betaine 10, 20 and 30 mg/kg prior to ketamine 10 mg/kg, day 1 test session, vs vehicle control): significantly reduced | duration of swimming in FST (Male ICR mice [6]; betaine 10, 20 and 30 mg/kg prior to ketamine 10 mg/kg, day 7 retest session, vs control): significantly increased | duration of swimming in FST (Male ICR mice [6]; betaine 20 and 30 mg/kg, day 1 test session, vs control): significantly increased | duration of immobility in FST (Male ICR mice [6]; betaine 20 and 30 mg/kg, day 1 test session, vs vehicle control): significantly reduced | duration of immobility in FST (Male ICR mice [6]; betaine 20 and 30 mg/kg, day 7 retest session, vs vehicle control): significantly decreased | duration of immobility in FST (Male ICR mice [6]; betaine 20 and 30 mg/kg, main effect over both sessions): significantly decreased | duration of struggling in FST (Male ICR mice [6]; betaine 20 and 30 mg/kg, over both sessions): significantly increased
